Laboratory results published in US20240350454A1, “BACTERIAL EFFLUX PUMP INHIBITORS AND METHODS OF USE” (THE REGENTS OF THE UNIVERSITY OF COLORADO, priority 2021, published 2024).
Peptide text beside a SMILES is read from it. * marks the point of attachment. βNA = c1ccc2cc(N*)ccc2c1

Key:
Assay type in all cases: cell-based
[1] = test system: S. enterica serovar Typhimurium SL1344 sifB::gfp in RAW264.7 macrophages; assay: SAFIRE assay, intracellular bacterial load in macrophages; settings: Salmonella enterica
Description: The following experiments were performed using the SAFIRE assay described in U.S. Publication 2020/0022961, which is incorporated by reference in its entirety for all purposes. SAFIRE (Screen for Anti-infectives using Fluorescence microscopy of IntracellulaR Enterobacteriaceae) uses cell culture as a surrogate to identify compounds that prevent intracellular replication of a model Gram-negative bacterial human pathogen. The method identifies compounds that prevent bacterial growth in broth culture and compounds that decrease the load of Gram-negative bacteria inside of macrophages at concentrations≤10 μM but have no effect on bacterial growth in standard Mueller Hinton broth (MHB) at 100 μM. Thus, SAFIRE enables the discovery of compounds that are effective against Gram-negative bacteria in host cells and in whole animals, whether or not they are antibacterial in broth.
(§1) The wild-type S. enterica serovar Typhimurium strain, SL1344, was initially isolated from the blood of an infected calf. For screening and validation in macrophages, SL1344 sifB::gfp was grown in Luria-Bertani Broth (LB) with 30 μg/ml streptomycin and 30 μg/ml kanamycin to saturation overnight, diluted to an OD of 0.001 and frozen in 100 μL aliquots in 20% glycerol at −80° C. Prior to infection, aliquots were grown in 5 mL cultures of LB with 30 μg/ml streptomycin and 30 μg/ml kanamycin for 18 hours at 37° C. with aeration. Bacterial strains were routinely grown in LB with antibiotics: 30 μg/ml streptomycin, 30 μg/ml kanamycin, 50 μg/ml ampicillin, 10 μg/ml tetracycline, and/or 1.15 μg/ml meropenem. The acrAB::kan and macAB::kan strains were constructed according to known methods. S. enterica subsp. enterica, serovar Typhimurium strain S10801, NR-22067 is a multidrug resistant isolate from a calf with sepsis. This strain and others as indicated were obtained through BEI resources, NIAID, NIH.
(§2) Murine macrophage-like RAW 264.7 cells and HeLa human epithelial cells were obtained from the American Type Tissue Collection. BMDMs were isolated as previously described. Briefly, marrow was flushed from the femurs of 1- to 4-month-old 129SvEvTac mice (Taconic Laboratories) bred in-house. Mononuclear cells were separated using Histopaque-1083 (Sigma), washed, and directly seeded into assay plates at 1×10^5 cells/ml in complete medium supplemented with 35% conditioned media from 3T3 cells expressing MCSF. Media were refreshed three days later. After 1 week, media were replaced with 100 μL fresh media and cells were infected as described below. All three types of cells were grown in DMEM high glucose (Sigma) supplemented with 10% fetal bovine serum, 2 mM L-glutamine, 1 mM sodium pyruvate, 10 mM HEPES, and 50 μMβ-mercaptoethanol. Cells were maintained in a 5% CO2 humidified atmosphere at 37° C. For screening, frozen aliquots of RAW 264.7 were thawed and allowed to expand for three days prior to seeding; other experiments were performed with cultures between passages four and 20.
SAFIRE—RAW264.7 macrophages (7×103 in 40 μL or 5×104 in 100 μL) were seeded, respectively, in 384- or 96-well black-walled glass-bottomed plates (Brooks Automation). Twenty four hours post-seeding, bacteria in 20 or 50 μL PBS were added to a final concentration of 1×10^7 CFU/mL, conditions yielding infection of approximately 70% of macrophages at 18 hours post-infection with minimal macrophage toxicity. The sifB::gfp bacterial reporter strain was used to minimize green signal from extracellular bacteria. […] At two hours post-infection, 200 or 500 nL compound was added using a pin tool (CyBio) to yield a final concentration of 25 μM. Each assay plate included rifampicin and DMSO controls. In some experiments, media were removed and replaced with fresh media containing 40 μg/mL gentamicin and increasing concentrations of the compounds of the disclosure. […]

[2] = test system: E. Cloacae MB315; assay: PMB MIC with selected compound in MHB; settings: for MIC: Enterobacter cloacae, selected compound 50 μg/mL in MHB
Description: (§3) MIC for the antibiotic alone (i.e., in the absence of the disclosed compounds) is provided in the first row labeled “None”. […] […] At this concentration (50 μg/mL), the compounds of the disclosure lacked intrinsic antibacterial activity but a significant improvement in efficacy was still observed. Thus, the compounds of the disclosure may be used to potentiate the activity of antibiotics that have lost their efficacy due to efflux.

[3] = test system: RAW264.7 macrophages; settings: mouse, 16 h
Text: as §2
SAFIRE—RAW264.7 macrophages (7×103 in 40 μL or 5×104 in 100 μL) were seeded, respectively, in 384- or 96-well black-walled glass-bottomed plates (Brooks Automation). Twenty four hours post-seeding, bacteria in 20 or 50 μL PBS were added to a final concentration of 1×10^7 CFU/mL, conditions yielding infection of approximately 70% of macrophages at 18 hours post-infection with minimal macrophage toxicity. The sifB::gfp bacterial reporter strain was used to minimize green signal from extracellular bacteria. […] At two hours post-infection, 200 or 500 nL compound was added using a pin tool (CyBio) to yield a final concentration of 25 μM. Each assay plate included rifampicin and DMSO controls. In some experiments, media were removed and replaced with fresh media containing 40 μg/mL gentamicin and increasing concentrations of the compounds of the disclosure. At 17.5 hours post-infection, PBS containing MitoTracker Red CMXRos (Life Technologies) was added to a final concentration of 300 nM or 100 nM, for 384- or 96-well, respectively. Thirty minutes later, 16% paraformaldehyde was added to a final concentration of […] and incubated at room temperature for 15 minutes. Wells were washed twice with PBS and stained for 20 minutes with 1 μMDAPI; wells were washed twice and stored in 90% glycerol in PBS until imaging. The Z′-factor of the screening platform was 0.59 and 0.48 in 96-well and 384-well plates, respectively, within published ranges for complicated cell-based screens.
In addition, toxicity was measured according the following procedure: 1) analyzing macrophage cell morphology; and 2) using MATLAB to count cells (cells that lift up and float after treatment are not within the appropriate Z plane to be counted, and thus are considered dead). If 70% of the cells are adherent (as measured by comparing the number of cells before and after treatment), the compound is considered not toxic. Compounds that pass #1 and #2 above are considered to have a toxicity “>50 μM”. […]

[4] = test system: E. coli BAA-2340; assay: Doxycycline MIC with selected compound in MHB
Text: (§4) MIC for the antibiotic alone (i.e., in the absence of the disclosed compounds) is provided in the first row labeled “None”. […] […] […] Thus, the compounds of the disclosure may be used to potentiate the activity of antibiotics that have lost their efficacy due to efflux.

[5] = test system: K. pneumoniae BAA-2342; assay: Doxycycline MIC with selected compound in MHB
Text: as §4

[6] = test system: K. pneumoniae BAA-1705; assay: Doxycycline MIC with selected compound in MHB
Text: as §4

[7] = test system: S. enterica sp. Enterica S10801; assay: Doxycycline MIC with selected compound in MHB
Description: as §1
MIC for the antibiotic alone (i.e., in the absence of the disclosed compounds) is provided in the first row labeled “None”. […] At this concentration (50 μg/mL), the compounds of the disclosure lacked intrinsic antibacterial activity but a significant improvement in efficacy was still observed. […]

[8] = test system: E. cloacae BAA-2341; assay: Doxycycline MIC with selected compound in MHB
Description: as §3

[9] = test system: K. pneumoniae BAA-1705; assay: Ciprofloxacin MIC with selected compound in MHB; settings: comparator at 25 μg/mL in MHB
Description: as §3

[10] = test system: E. cloacae BAA-2341; assay: Ciprofloxacin MIC with selected compound in MHB; settings: comparator at 25 μg/mL in MHB
[11] = test system: K. pneumoniae BAA-2342; assay: Chloramphenicol MIC with selected compound in MHB; settings: comparator at 25 μg/mL in MHB
Text: as §4

[12] = test system: A. baumannii MB306; assay: Chloramphenicol MIC with selected compound in MHB; settings: comparator at 25 μg/mL in MHB
Text: as §4

[13] = test system: E. cloacae BAA-2341; assay: Chloramphenicol MIC with selected compound in MHB; settings: comparator at 25 μg/mL in MHB
Text: as §4

[14] = test system: A. baumannii MB309; assay: Chloramphenicol MIC with selected compound in MHB; settings: comparator at 25 μg/mL in MHB
Text: as §4

[15] = test system: K. pneumoniae BAA-2342; assay: Ciprofloxacin MIC with selected compound in MHB; settings: comparator at 25 μg/mL in MHB
[16] = test system: E. coli BAA-2340; assay: Chloramphenicol MIC with selected compound in MHB; settings: comparator at 25 μg/mL in MHB
Description: as §3

[17] = test system: P. aeruginosa Focus MB0477; assay: Chloramphenicol MIC with selected compound in MHB; settings: comparator at 25 μg/mL in MHB
Description: as §3

[18] = test system: E. coli BAA-2340; assay: Ciprofloxacin MIC with selected compound in MHB; settings: comparator at 25 μg/mL in MHB

Row | Structure (SMILES) | IC50 [1] | MIC [2] | Toxicity [3] | also measured
1 | NCC1CCN(CC(O)COc2cc(Cl)cc(Cl)c2)C1 (stereo not shown) [Compound 10] | < 1 µM | 32 µg/mL | <50 but >25 μM | 
2 | COCCCN(C)C1CCN(CC(O)COc2ccc(Cl)c(Cl)c2)CC1 (stereo not shown) [Compound 11] | < 1 µM |  | >50 µM | 
3 | NC1CCN(CC(O)COc2cccc(C(F)(F)F)c2)CC1 (stereo not shown) [Compound 12] | < 1 µM |  | >50 µM | 
4 | N[C@@H]1CCN(C[C@H](O)COc2ccc(Cl)c(Cl)c2)C1 [Compound 13] | < 1 µM |  | >50 µM | 
5 | N[C@H]1CCN(C[C@H](O)COc2ccc(Cl)c(Cl)c2)C1 [Compound 14] | > 1 µM |  | >50 µM | 
6 | N[C@@H]1CCN(C[C@@H](O)COc2ccc(Cl)c(Cl)c2)C1 [Compound 15] | < 1 µM |  | >50 µM | 
7 | N[C@H]1CCN(C[C@@H](O)COc2ccc(Cl)c(Cl)c2)C1 [Compound 16] | < 1 µM | 32 µg/mL | >50 µM | 
8 | CC1(N)CCN(CC(O)COc2cc(Cl)cc(Cl)c2)CC1 (stereo not shown) [Compound 17] | < 1 µM | 16 µg/mL | <25 µM | 
9 | OC(CN[C@H]1[C@@H]2CNC[C@@H]21)COc1cc(Cl)cc(Cl)c1 (stereo partly shown) [Compound 18] | < 1 µM | 1 µg/mL | >50 µM | 
10 | CN(CCCCN)CC(O)COc1cc(Cl)cc(Cl)c1 (stereo not shown) [Compound 19] | < 1 µM | 32 µg/mL | <50 but >25 μM | 
11 | C[C@H]1c2cccc(O)c2C(=O)C2=C(O)[C@]3(O)C(=O)C(C(N)=O)=C(O)[C@@H](N(C)C)[C@@H]3[C@@H](O)[C@@H]21 [Doxycycline, doxycycline] |  |  |  | MIC ([4]; Escherichia coli, BAA2340, antibiotic alone (row None), MHB): 8 µg/mL; MIC ([5]; Klebsiella pneumoniae, BAA2342, antibiotic alone (row None), MHB): 8 µg/mL; MIC ([6]; Klebsiella pneumoniae, BAA1705, antibiotic alone (row None), MHB): 4 µg/mL; MIC ([7]; Salmonella enterica, antibiotic alone (row None), MHB): 32 µg/mL; MIC ([8]; Enterobacter cloacae, BAA2341, antibiotic alone (row None), MHB): 8 µg/mL
12 | N=C(N)NCCC[C@H](NC(=O)[C@@H](N)Cc1ccccc1)C(=O)Nc1ccc2ccccc2c1 [PAβN] (H-Phe-Arg-βNA) |  |  |  | Doxycycline MIC ([4]; comparator at 25 μg/mL in MHB): ≤1 µg/mL; Doxycycline MIC ([5]; comparator at 25 μg/mL in MHB): ≤1 µg/mL; Doxycycline MIC ([6]; comparator at 25 μg/mL in MHB): ≤1 µg/mL; Ciprofloxacin MIC [9]: 64 µg/mL; Ciprofloxacin MIC [10]: 16 µg/mL; Chloramphenicol MIC [11]: 8 µg/mL; Chloramphenicol MIC [12]: 32 µg/mL; Chloramphenicol MIC [13]: 2 µg/mL; Chloramphenicol MIC [14]: 64 µg/mL; Doxycycline MIC ([7]; comparator at 25 μg/mL in MHB): 8 µg/mL; Ciprofloxacin MIC [15]: 16 µg/mL; Chloramphenicol MIC [16]: 8 µg/mL; Chloramphenicol MIC [17]: 1 µg/mL; PMB MIC ([2]; comparator at 25 μg/mL in MHB): 32 µg/mL; Ciprofloxacin MIC [18]: 16 µg/mL; Doxycycline MIC ([8]; comparator at 25 μg/mL in MHB): ≤1 µg/mL
